# Laboratory results: PubChem BioAssay AID1963985 (Molecular Pharmacology Branch, DTP, NCI, 2024)
# pIC50: −log10 of the molar value.
# System: 252836-082-R-J2-PDC tumor spheroids, viability
# Assay: Anticancer human tumor 252836-082-R-J2-PDC patient-derived head and neck squamous cell carcinoma cell line growth inhibition [PI3K]
# Conditions: spheroids with HUVEC and MSC; for pIC50: curve of first compound; for viability, T/C: stronger effect = lower value
# Outline: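 Viability of mixed-cell spheroids was determined after exposure to pairwise combinations, one partner being inavolisib, alpelisib, duvelisib or copanlisib. Highest tested concentration matched clinical Cmax where known and 10 microM where not, descending in half-log steps.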
# [1] = second compound 0.00316 µM, first compound 0.0316 µM
# [2] = second compound 0.00316 µM, first compound 0.1 µM
# [3] = second compound 0.01 µM, first compound 0.0316 µM
# [4] = second compound 0.01 µM, first compound 0.1 µM
# [5] = second compound 0.0316 µM, first compound 0.0316 µM
# [6] = second compound 0.0316 µM, first compound 0.1 µM
# [7] = second compound 0.1 µM, first compound 0.0316 µM
# [8] = second compound 0.1 µM, first compound 0.1 µM
# [9] = second compound 0.316 µM, first compound 0.0316 µM
# [10] = second compound 0.316 µM, first compound 0.1 µM
# [11] = second compound 1 µM, first compound 0.0316 µM
# [12] = second compound 1 µM, first compound 0.1 µM
# 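Note: spheroids exposed to agents for seven days before readout.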
# 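Throughout, for viability, T/C: percent of vehicle DMSO control viability so 100% = untreated growth.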
structure (smiles),measurement,setting,value
C[C@@H](NC(=O)c1ncnc(N)c1Cl)c1ncc(C(=O)Nc2cc(C(F)(F)F)c(Cl)cn2)s1 + CC(Nc1ccc2c(c1)OCCn1cc(N3C(=O)OCC3C(F)F)nc1-2)C(N)=O,pIC50,second compound 0.00316 µM,< 5.00
same,pIC50,second compound 0.01 µM,< 5.00
same,pIC50,second compound 0.0316 µM,< 5.00
same,pIC50,second compound 0.1 µM,< 5.00
same,pIC50,second compound 0.316 µM,5.34
same,pIC50,second compound 1 µM,> 7.50
same,"viability, T/C",[1],96.4%
same,"viability, T/C",[2],76.1%
same,"viability, T/C","second compound 0.00316 µM, first compound 0.316 µM",90.9%
same,"viability, T/C","second compound 0.00316 µM, first compound 1 µM",90.8%
same,"viability, T/C","second compound 0.00316 µM, first compound 3.16 µM",77.8%
same,"viability, T/C","second compound 0.00316 µM, first compound 10 µM",77.9%
same,"viability, T/C",[3],98.9%
same,"viability, T/C",[4],91.3%
same,"viability, T/C","second compound 0.01 µM, first compound 0.316 µM",85.5%
same,"viability, T/C","second compound 0.01 µM, first compound 1 µM",100%
same,"viability, T/C","second compound 0.01 µM, first compound 3.16 µM",87.4%
same,"viability, T/C","second compound 0.01 µM, first compound 10 µM",80.2%
same,"viability, T/C",[5],84.5%
same,"viability, T/C",[6],80.5%
same,"viability, T/C","second compound 0.0316 µM, first compound 0.316 µM",81.5%
same,"viability, T/C","second compound 0.0316 µM, first compound 1 µM",88.4%
same,"viability, T/C","second compound 0.0316 µM, first compound 3.16 µM",73.8%
same,"viability, T/C","second compound 0.0316 µM, first compound 10 µM",64%
same,"viability, T/C",[7],59.6%
same,"viability, T/C",[8],66.3%
same,"viability, T/C","second compound 0.1 µM, first compound 0.316 µM",61.8%
same,"viability, T/C","second compound 0.1 µM, first compound 1 µM",77.5%
same,"viability, T/C","second compound 0.1 µM, first compound 3.16 µM",60.5%
same,"viability, T/C","second compound 0.1 µM, first compound 10 µM",58.4%
same,"viability, T/C",[9],62.9%
same,"viability, T/C",[10],50.2%
same,"viability, T/C","second compound 0.316 µM, first compound 0.316 µM",53.9%
same,"viability, T/C","second compound 0.316 µM, first compound 1 µM",60.4%
same,"viability, T/C","second compound 0.316 µM, first compound 3.16 µM",55.1%
same,"viability, T/C","second compound 0.316 µM, first compound 10 µM",42.2%
same,"viability, T/C",[11],42.1%
same,"viability, T/C",[12],44.4%
same,"viability, T/C","second compound 1 µM, first compound 0.316 µM",46.2%
same,"viability, T/C","second compound 1 µM, first compound 1 µM",38.2%
same,"viability, T/C","second compound 1 µM, first compound 3.16 µM",43.3%
same,"viability, T/C","second compound 1 µM, first compound 10 µM",32.9%
Cn1ncnc1[C@H]1c2n[nH]c(=O)c3cc(F)cc(c23)N[C@@H]1c1ccc(F)cc1 + CC(Nc1ccc2c(c1)OCCn1cc(N3C(=O)OCC3C(F)F)nc1-2)C(N)=O,pIC50,second compound 0.00316 µM,< 7.00
same,pIC50,second compound 0.01 µM,< 7.00
same,pIC50,second compound 0.0316 µM,< 7.00
same,pIC50,second compound 0.1 µM,7.33
same,pIC50,second compound 0.316 µM,8.17
same,pIC50,second compound 1 µM,> 9.50
same,"viability, T/C","second compound 0.00316 µM, first compound 0.000316 µM",97.7%
same,"viability, T/C","second compound 0.00316 µM, first compound 0.001 µM",86.2%
same,"viability, T/C","second compound 0.00316 µM, first compound 0.00316 µM",78.7%
same,"viability, T/C","second compound 0.00316 µM, first compound 0.01 µM",86.3%
same,"viability, T/C",[1],79.2%
same,"viability, T/C",[2],57.5%
same,"viability, T/C","second compound 0.01 µM, first compound 0.000316 µM",85.6%
same,"viability, T/C","second compound 0.01 µM, first compound 0.001 µM",89.5%
same,"viability, T/C","second compound 0.01 µM, first compound 0.00316 µM",89%
same,"viability, T/C","second compound 0.01 µM, first compound 0.01 µM",84.5%
same,"viability, T/C",[3],72.8%
same,"viability, T/C",[4],53%
same,"viability, T/C","second compound 0.0316 µM, first compound 0.000316 µM",85.9%
same,"viability, T/C","second compound 0.0316 µM, first compound 0.001 µM",93.6%
same,"viability, T/C","second compound 0.0316 µM, first compound 0.00316 µM",71.2%
same,"viability, T/C","second compound 0.0316 µM, first compound 0.01 µM",64.4%
same,"viability, T/C",[5],72.6%
same,"viability, T/C",[6],50.3%
same,"viability, T/C","second compound 0.1 µM, first compound 0.000316 µM",67.9%
same,"viability, T/C","second compound 0.1 µM, first compound 0.001 µM",71.8%
same,"viability, T/C","second compound 0.1 µM, first compound 0.00316 µM",68.7%
same,"viability, T/C","second compound 0.1 µM, first compound 0.01 µM",59.5%
same,"viability, T/C",[7],54.3%
same,"viability, T/C",[8],42.1%
same,"viability, T/C","second compound 0.316 µM, first compound 0.000316 µM",52.8%
same,"viability, T/C","second compound 0.316 µM, first compound 0.001 µM",58.1%
same,"viability, T/C","second compound 0.316 µM, first compound 0.00316 µM",57.6%
same,"viability, T/C","second compound 0.316 µM, first compound 0.01 µM",44%
same,"viability, T/C",[9],41%
same,"viability, T/C",[10],30.8%
same,"viability, T/C","second compound 1 µM, first compound 0.000316 µM",50.6%
same,"viability, T/C","second compound 1 µM, first compound 0.001 µM",45.4%
same,"viability, T/C","second compound 1 µM, first compound 0.00316 µM",50.1%
same,"viability, T/C","second compound 1 µM, first compound 0.01 µM",36%
same,"viability, T/C",[11],31.9%
same,"viability, T/C",[12],27.2%
